Experimental findings from patent EP4483954A1 (Masarykova Univerzita, priority 2023, dated 2025) are described below.

What all share (type): biochemical
In one assay the target is T1, CDKL3(h) (Homo sapiens, UniProt Q8IVW4).
T1 construct: purchased Eurofins (KinaseProfiler)
Kind of assay: radiometric kinase assay (KinaseProfiler, Eurofins), CDKL3. The settings on record: in vitro radiometric kinase assay, tested at 1 nM to 10 000 nM, no pre-incubation; read-out: inhibitory activities (IC50 values) CDKL3. The procedure: (§1) The compounds were profiled in the radiometric assays (KinaseProfiler, Eurofins).
(§2) Briefly, kinases were diluted in the buffer shown below prior to addition to the reaction mix: • CDKL3, TAF1L: 20 mM Tris/HCl pH 8.5, 0.2 mM EDTA, 0.1% β-mercaptoethanol, 0.01% Brij-35, 5% glycerol, 1 mg/ml BSA; • Haspin: 15 mM MOPS, 0.75 mM EDTA, 0.0075% Brij-35, 3.75% Glycerol, 150 mM NaCl, 0.1% β-mercaptoethanol, 1 mg/mLBSA; • CDKL4, CLK2, PIM1, TRB2: […], 1 mM EDTA, 0.01% Brij-35, 5% Glycerol, 0.1% β-mercaptoethanol, 1 mg/mL BSA.
(§3) All compounds were prepared to 50x final assay concentration in 100% DMSO. This working stock of the compound was added to the assay well as the first component in the reaction, followed by the remaining components as detailed in the general assay protocols below. There was no pre-incubation step between the compound and the kinase prior to initiation of the reaction.
CDKL3(h) was incubated with 8 mM MOPS pH 7.0, 0.2 mM EDTA, 250 µM RRRFRPASPLRGPPK (SEQ ID NO. 1), 10 mM magnesium acetate and γ-^33P-ATP (specific activity and concentration as required). The reaction was initiated by the addition of the Mg/ATP mix. After incubation for 120 minutes at room temperature, the reaction was stopped by the addition of phosphoric acid to a concentration of 0.5%. An aliquot of the stopped reaction was spotted onto a filter and washed four times for 4 minutes in 0.425% phosphoric acid and once in methanol prior to drying and scintillation counting.
(§4) Kinase activity data were expressed as the percent remaining kinase activity in tested samples compared to the vehicle (DMSO) reactions. The compounds were tested at the following concentrations: 1 nM, 3 nM, 10 nM, 30 nM, 100 nM, 300 nM, 1000 nM, 3000 nM, and 10 000 nM; IC50 values and curve fits were then obtained.

A further assay concerns the target T2, TRB2(h) (Homo sapiens, UniProt Q92519).
T2 construct: purchased Eurofins (KinaseProfiler)
T2 sequence (Q92519 1-343): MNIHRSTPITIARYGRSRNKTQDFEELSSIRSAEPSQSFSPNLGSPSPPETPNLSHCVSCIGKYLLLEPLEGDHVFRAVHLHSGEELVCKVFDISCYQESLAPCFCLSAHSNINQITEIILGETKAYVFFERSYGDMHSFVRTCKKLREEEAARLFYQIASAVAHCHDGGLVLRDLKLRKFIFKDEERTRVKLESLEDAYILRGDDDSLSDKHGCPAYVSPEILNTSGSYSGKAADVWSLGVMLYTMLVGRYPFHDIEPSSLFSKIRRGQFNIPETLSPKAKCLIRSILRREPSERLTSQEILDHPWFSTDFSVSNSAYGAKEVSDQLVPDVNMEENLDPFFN
Kind of assay: radiometric kinase assay (KinaseProfiler, Eurofins), TRB2. The settings on record: in vitro radiometric kinase assay, tested at 1 nM to 10 000 nM, no pre-incubation; read-out: inhibitory activities (IC50 values) TRB2. The procedure:
as §1, §2, §3
TRB2(h) was incubated with 8 mM MOPS pH 7.0, 0.2 mM EDTA, 250 µM RRRFRPASPLRGPPK (SEQ ID NO. 1), 10 mM magnesium acetate and γ-^33P-ATP (specific activity and concentration as required). The reaction was initiated by the addition of the Mg/ATP mix. After incubation for 120 minutes at room temperature, the reaction was stopped by the addition of phosphoric acid to a concentration of 0.5%. An aliquot of the stopped reaction was spotted onto a filter and washed four times for 4 minutes in 0.425% phosphoric acid and once in methanol prior to drying and scintillation counting.
as §4

The target of the next assay is T3, CDKL4(h) (Homo sapiens, UniProt Q5MAI5).
T3 construct: purchased Eurofins (KinaseProfiler)
Kind of assay: radiometric kinase assay (KinaseProfiler, Eurofins), CDKL4. The settings on record: in vitro radiometric kinase assay, tested at 1 nM to 10 000 nM, no pre-incubation; read-out: inhibitory activities (IC50 values) CDKL4. The protocol: as §1, §2, §3
CDKL4(h) was incubated with 8 mM MOPS pH 7.0, 0.2 mM EDTA, 250 µM RRRFRPASPLRGPPK (SEQ ID NO. 1), 10 mM magnesium acetate and γ-^33P-ATP (specific activity and concentration as required). The reaction was initiated by the addition of the Mg/ATP mix. After incubation for 120 minutes at room temperature, the reaction was stopped by the addition of phosphoric acid to a concentration of 0.5%. An aliquot of the stopped reaction was spotted onto a filter and washed four times for 4 minutes in 0.425% phosphoric acid and once in methanol prior to drying and scintillation counting.
as §4

The next assay deals with T4, CLK2 (h) (Homo sapiens, UniProt P49760).
T4 construct: purchased Eurofins (KinaseProfiler)
The experiment in a line: radiometric kinase assay (KinaseProfiler, Eurofins), CLK2. The settings on record: in vitro radiometric kinase assay, tested at 1 nM to 10 000 nM, no pre-incubation; read-out: inhibitory activities (IC50 values) CLK2. The procedure: as §1, §2, §3
CLK2 (h) was incubated with 8 mM MOPS pH 7.0, 0.2 mM EDTA, 20 µM […](p)EDEEE (SEQ ID NO. 2), 10 mM magnesium acetate and γ-^33P-ATP (specific activity and concentration as required). The reaction was initiated by the addition of the Mg/ATP mix. After incubation for 40 minutes at room temperature, the reaction was stopped by the addition of phosphoric acid to a concentration of 0.5%. An aliquot of the reaction was then spotted onto a filter and washed four times for 4 minutes in 0.425% phosphoric acid and once in methanol prior to drying and scintillation counting.
as §4

Another assay addresses T5, TAF1L(h) (Homo sapiens, UniProt Q8IZX4).
T5 construct: purchased Eurofins (KinaseProfiler)
The experiment in a line: radiometric kinase assay (KinaseProfiler, Eurofins), TAF1L. The settings on record: in vitro radiometric kinase assay, tested at 1 nM to 10 000 nM, no pre-incubation; read-out: inhibitory activities (IC50 values) TAF1L. The procedure: as §1, §2, §3
TAF1L(h) was incubated with 20 mM Tris/HCl pH 8.5, 0.2 mM EDTA, 250 µM RRRFRPASPLRGPPK (SEQ ID NO. 1), 10 mM magnesium acetate and γ-^33P-ATP (specific activity and concentration as required). The reaction was initiated by the addition of the Mg/ATP mix. After incubation for 120 minutes at room temperature, the reaction was stopped by the addition of phosphoric acid to a concentration of 0.5%. An aliquot of the stopped reaction was spotted onto a filter and washed four times for 4 minutes in 0.425% phosphoric acid and once in methanol prior to drying and scintillation counting.
as §4

T1 sequence (Q8IVW4 whole entry): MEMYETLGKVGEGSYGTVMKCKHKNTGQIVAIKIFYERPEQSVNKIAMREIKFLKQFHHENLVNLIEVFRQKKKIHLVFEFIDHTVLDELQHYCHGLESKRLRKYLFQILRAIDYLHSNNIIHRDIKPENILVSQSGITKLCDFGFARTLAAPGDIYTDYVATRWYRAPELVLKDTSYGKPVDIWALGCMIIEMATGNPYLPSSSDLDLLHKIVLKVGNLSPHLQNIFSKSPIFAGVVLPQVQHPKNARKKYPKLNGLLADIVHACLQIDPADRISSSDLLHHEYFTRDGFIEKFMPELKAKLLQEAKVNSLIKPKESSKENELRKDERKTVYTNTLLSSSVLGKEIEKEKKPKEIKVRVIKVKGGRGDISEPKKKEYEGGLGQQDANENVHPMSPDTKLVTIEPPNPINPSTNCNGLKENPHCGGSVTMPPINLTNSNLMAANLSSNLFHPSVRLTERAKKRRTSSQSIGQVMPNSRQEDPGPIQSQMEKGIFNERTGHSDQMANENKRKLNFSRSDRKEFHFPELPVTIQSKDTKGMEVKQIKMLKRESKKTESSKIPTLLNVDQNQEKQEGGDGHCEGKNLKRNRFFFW
T3 sequence (Q5MAI5 whole entry): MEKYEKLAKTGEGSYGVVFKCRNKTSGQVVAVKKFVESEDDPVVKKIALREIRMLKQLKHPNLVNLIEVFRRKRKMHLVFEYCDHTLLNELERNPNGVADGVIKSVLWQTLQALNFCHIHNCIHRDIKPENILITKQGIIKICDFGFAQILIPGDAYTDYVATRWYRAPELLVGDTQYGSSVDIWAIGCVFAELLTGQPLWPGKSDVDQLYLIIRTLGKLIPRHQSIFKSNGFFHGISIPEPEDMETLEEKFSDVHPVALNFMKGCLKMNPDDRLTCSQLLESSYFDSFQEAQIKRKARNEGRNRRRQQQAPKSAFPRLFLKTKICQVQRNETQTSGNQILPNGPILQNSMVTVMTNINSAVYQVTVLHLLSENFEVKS
T5 sequence (Q8IZX4 whole entry): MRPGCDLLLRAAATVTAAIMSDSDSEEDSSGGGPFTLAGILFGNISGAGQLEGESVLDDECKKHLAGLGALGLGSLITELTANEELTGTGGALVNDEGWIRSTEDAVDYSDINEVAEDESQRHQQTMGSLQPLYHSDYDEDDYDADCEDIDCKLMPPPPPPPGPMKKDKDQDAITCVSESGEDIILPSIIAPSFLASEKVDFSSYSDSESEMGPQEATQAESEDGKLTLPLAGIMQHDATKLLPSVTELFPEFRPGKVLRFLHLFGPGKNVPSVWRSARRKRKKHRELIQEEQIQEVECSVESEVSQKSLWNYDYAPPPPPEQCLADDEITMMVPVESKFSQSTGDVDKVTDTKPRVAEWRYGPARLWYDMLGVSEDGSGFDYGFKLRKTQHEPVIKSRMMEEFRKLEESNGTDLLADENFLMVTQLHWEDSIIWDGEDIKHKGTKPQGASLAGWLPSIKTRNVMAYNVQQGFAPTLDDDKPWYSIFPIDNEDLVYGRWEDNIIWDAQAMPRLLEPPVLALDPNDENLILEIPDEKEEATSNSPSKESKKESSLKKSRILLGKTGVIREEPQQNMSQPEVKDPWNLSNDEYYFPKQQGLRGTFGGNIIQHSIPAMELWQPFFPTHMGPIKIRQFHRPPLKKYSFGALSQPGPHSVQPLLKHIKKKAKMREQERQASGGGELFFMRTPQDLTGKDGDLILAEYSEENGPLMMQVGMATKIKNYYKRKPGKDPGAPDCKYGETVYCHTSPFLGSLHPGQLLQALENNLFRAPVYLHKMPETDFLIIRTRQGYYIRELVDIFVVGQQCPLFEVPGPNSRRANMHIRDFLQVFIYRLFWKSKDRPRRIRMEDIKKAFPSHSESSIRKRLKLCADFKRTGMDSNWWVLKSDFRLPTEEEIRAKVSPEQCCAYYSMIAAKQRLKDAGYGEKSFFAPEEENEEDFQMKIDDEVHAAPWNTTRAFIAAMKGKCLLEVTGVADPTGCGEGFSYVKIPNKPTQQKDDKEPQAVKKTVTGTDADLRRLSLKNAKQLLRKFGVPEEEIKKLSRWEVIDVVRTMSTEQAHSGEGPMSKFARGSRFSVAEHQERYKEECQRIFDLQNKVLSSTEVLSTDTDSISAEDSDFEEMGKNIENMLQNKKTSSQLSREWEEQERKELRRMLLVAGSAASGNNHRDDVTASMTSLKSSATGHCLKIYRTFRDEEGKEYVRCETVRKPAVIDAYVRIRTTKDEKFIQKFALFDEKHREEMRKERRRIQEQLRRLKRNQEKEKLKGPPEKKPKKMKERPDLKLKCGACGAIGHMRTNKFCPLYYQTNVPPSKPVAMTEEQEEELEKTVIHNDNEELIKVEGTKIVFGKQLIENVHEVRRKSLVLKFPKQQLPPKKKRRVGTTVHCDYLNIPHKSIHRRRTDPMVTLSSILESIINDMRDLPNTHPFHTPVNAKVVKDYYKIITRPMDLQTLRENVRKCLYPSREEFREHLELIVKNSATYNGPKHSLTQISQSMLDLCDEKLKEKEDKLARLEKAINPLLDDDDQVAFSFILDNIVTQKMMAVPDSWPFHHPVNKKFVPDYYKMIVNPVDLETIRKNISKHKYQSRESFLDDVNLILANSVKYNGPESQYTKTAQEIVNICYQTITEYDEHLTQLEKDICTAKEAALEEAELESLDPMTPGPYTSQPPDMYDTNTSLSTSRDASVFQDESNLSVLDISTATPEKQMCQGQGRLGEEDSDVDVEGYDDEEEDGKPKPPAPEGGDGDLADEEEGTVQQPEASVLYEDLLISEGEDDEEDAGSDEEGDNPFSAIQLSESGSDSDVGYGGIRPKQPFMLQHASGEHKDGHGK
T4 sequence (P49760 whole entry): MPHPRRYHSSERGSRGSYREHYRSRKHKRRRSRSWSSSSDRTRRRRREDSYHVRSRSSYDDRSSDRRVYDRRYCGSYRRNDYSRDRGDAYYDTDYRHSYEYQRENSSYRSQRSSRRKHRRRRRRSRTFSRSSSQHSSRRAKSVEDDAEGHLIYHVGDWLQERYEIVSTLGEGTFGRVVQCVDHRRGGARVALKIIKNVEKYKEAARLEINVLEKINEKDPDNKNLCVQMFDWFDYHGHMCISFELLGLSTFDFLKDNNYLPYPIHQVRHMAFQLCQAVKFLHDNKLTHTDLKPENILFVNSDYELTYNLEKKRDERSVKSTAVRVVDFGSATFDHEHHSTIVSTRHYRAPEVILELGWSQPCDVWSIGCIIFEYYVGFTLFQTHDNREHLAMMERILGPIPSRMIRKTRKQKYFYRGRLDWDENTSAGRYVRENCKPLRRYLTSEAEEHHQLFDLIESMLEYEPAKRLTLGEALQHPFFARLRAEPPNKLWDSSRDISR

Turning to `Cn1cc(-c2ccc3scc(-c4ccnc(C#N)c4)c3n2)cn1`, the IC50 (as a rule, the point on the concentration scale where inhibition reaches its midpoint) is 100 to 499 nM at CDKL3(h); 100 to 499 nM on TRB2(h); 100 to 499 nM at CDKL4(h); 3 to 10 µM on CLK2 (h); 100 to 499 nM at TAF1L(h).

For the compound `Cn1nccc1-c1ccc2scc(-c3ccncc3)c2n1` [Preparative Example 90, 5-(1-methyl-1H-pyrazol-5-yl)-3-(pyridin-4-yl)thieno[3,2-b]pyridine], the IC50 was 500 to 3000 nM on CDKL3(h); 500 to 3000 nM on TRB2(h); 500 to 3000 nM at CDKL4(h); 3 to 10 µM at CLK2 (h); 500 to 3000 nM at TAF1L(h).

As to `Cn1cc(-c2ccc3scc(-c4cncs4)c3n2)cn1` [Preparative Example 69, 5-(1-methyl-1H-pyrazol-4-yl)-3-(thiazol-5-yl)thieno[3,2-b]pyridine], the IC50 on CDKL3(h) was in the range of 100 to 499 nM; on TRB2(h), 100 to 499 nM; at CDKL4(h), 100 to 499 nM; at CLK2 (h) it was 0.5 to 3 µM; at TAF1L(h), 20 to 99 nM.

On to `Cn1cc(-c2ccc3scc(-c4ccns4)c3n2)cn1` [Preparative Example 67, 3-(isothiazol-5-yl)-5-(1-methyl-1H-pyrazol-4-yl)thieno[3,2-b]pyridine], for which the IC50 was in the range of 20 to 99 nM on CDKL3(h); 20 to 99 nM on TRB2(h); 20 to 99 nM at CDKL4(h); 0.5 to 3 µM on CLK2 (h); 20 to 99 nM on TAF1L(h).

As for `Cc1cc2scc(-c3ccncc3)c2nc1-c1cnn(C)c1` [Preparative Example 150, 6-methyl-5-(1-methyl-1H-pyrazol-4-yl)-3-(pyridin-4-yl)thieno[3,2-b]pyridine], the IC50 on CDKL3(h) was in the range of 500 to 3000 nM; at TRB2(h), 500 to 3000 nM; on CDKL4(h), 500 to 3000 nM; on CLK2 (h), 3 to 10 µM; on TAF1L(h), 500 to 3000 nM.

With `Cc1cnccc1-c1csc2ccc(-c3cnn(C)c3)nc12` [Preparative Example 32, 5-(1-methyl-1H-pyrazol-4-yl)-3-(3-methylpyridin-4-yl)thieno[3,2-b]pyridine], the IC50 on CDKL3(h) was 500 to 3000 nM; on TRB2(h), 3000 to 10000 nM; at CDKL4(h) it was 500 to 3000 nM; on CLK2 (h) it was 3 to 10 µM; at TAF1L(h) it was 500 to 3000 nM.

With `Cn1cc(-c2ccc3scc(-c4ccnnc4)c3n2)cn1` [Preparative Example 40, 5-(1-methyl-1H-pyrazol-4-yl)-3-(pyridazin-4-yl)thieno[3,2-b]-pyridine], the IC50 was in the range of 500 to 3000 nM at CDKL3(h); 500 to 3000 nM at TRB2(h); 500 to 3000 nM on CDKL4(h); 3 to 10 µM on CLK2 (h); 100 to 499 nM on TAF1L(h).

In the case of `Cn1cc(-c2ccc3scc(-c4cnn(C)c4)c3n2)cn1` [Preparative Example 63, 3,5-bis(1-methyl-1H-pyrazol-4-yl)thieno[3,2-b]pyridine], the IC50 was 100 to 499 nM at CDKL3(h); 500 to 3000 nM at TRB2(h); 100 to 499 nM on CDKL4(h); 0.5 to 3 µM on CLK2 (h); 100 to 499 nM at TAF1L(h).

For the compound `COc1cc(-c2csc3ccc(-c4cnn(C)c4)nc23)ccn1` [Preparative Example 17, 3-(2-methoxypyridin-4-yl)-5-(1-methyl-1H-pyrazol-4-yl)thieno[3.2-b]pyridine], the IC50 fell in the range of 100 to 499 nM at CDKL3(h); 500 to 3000 nM on TRB2(h); 100 to 499 nM at CDKL4(h); 0.5 to 3 µM on CLK2 (h); 100 to 499 nM at TAF1L(h).

Take `Cn1cncc1-c1ccc2scc(-c3ccncc3)c2n1` [Preparative Example 91, 5-(1-methyl-1H-imidazol-5-yl)-3-(pyridin-4-yl)thieno[3,2-b]pyridine]: the IC50 at CDKL3(h) is 500 to 3000 nM; at TRB2(h), 500 to 3000 nM; on CDKL4(h) it was 500 to 3000 nM; at CLK2 (h), 0.5 to 3 µM; at TAF1L(h) it was 100 to 499 nM.

As to `Cn1ccc(Nc2ccc3scc(-c4ccncc4)c3n2)n1` [Preparative Example 99, N-(1-methyl-1H-pyrazol-3-yl)-3-(pyridin-4-yl)thieno[3,2-b]pyridin-5-amine], the IC50 on CDKL3(h) was in the range of 100 to 499 nM; on TRB2(h), 100 to 499 nM; at CDKL4(h), 500 to 3000 nM; on CLK2 (h), 0.5 to 3 µM; at TAF1L(h), 500 to 3000 nM.

`Cn1cc(-c2cc(Cl)c3scc(-c4ccncc4)c3n2)cn1` [Preparative Example 162, 7-chloro-5-(1-methyl-1H-pyrazol-4-yl)-3-(pyridin-4-yl)thieno[3,2-b]pyridine]: the half-maximal inhibitory concentration (IC50) at CDKL3(h) was 100 to 499 nM; on TRB2(h), 100 to 499 nM; at CDKL4(h), 100 to 499 nM; on CLK2 (h) it was 0.5 to 3 µM; at TAF1L(h), 100 to 499 nM.

As for `Cn1ccc(-c2ccc3scc(-c4ccncc4)c3n2)n1` [Preparative Example 86, 5-(1-methyl-1H-pyrazol-3-yl)-3-(pyridin-4-yl)thieno[3,2-b]pyridine], the IC50 lay within 500 to 3000 nM on CDKL3(h); 3000 to 10000 nM at TRB2(h); 3000 to 10000 nM on CDKL4(h); 3 to 10 µM at CLK2 (h); 500 to 3000 nM on TAF1L(h).

Regarding `Cc1nn(C)c(C)c1-c1ccc2scc(-c3ccncc3)c2n1` [Preparative Example 85, 3-(pyridin-4-yl)-5-(1,3,5-trimethyl-1H-pyrazol-4-yl)thieno[3,2-b]pyridine], the IC50 lay within 500 to 3000 nM on CDKL3(h); 500 to 3000 nM on TRB2(h); 500 to 3000 nM at CDKL4(h); 3 to 10 µM on CLK2 (h); 500 to 3000 nM at TAF1L(h).

Consider `Cc1cc(-c2cnn(C)c2)nc2c(-c3ccncc3)csc12` [Preparative Example 157, 7-methyl-5-(1-methyl-1H-pyrazol-4-yl)-3-(pyridin-4-yl)thieno[3,2-b]pyridine], for which the IC50 on CDKL3(h) was in the range of 500 to 3000 nM; on TRB2(h) it was 500 to 3000 nM; on CDKL4(h), 500 to 3000 nM; on CLK2 (h), 3 to 10 µM; on TAF1L(h), 3000 to 10000 nM.
